These results are taken from patent US20100137303A1, “NEW COMPOUND 255” (AstraZeneca AB, priority 2008, published 2010).

A word on the MIC: it is the least concentration at which growth counts as inhibited. A word on the IC50: it is the concentration that gives 50% inhibition.

Test [1] has as its system Spn548. In words: Bacterial susceptibility testing in liquid media, Spn548 MIC. The note with it: Streptococcus pneumoniae, 24 h, read-out: Spn548 Mean MIC.
Description: (§1) Compounds may be tested for antimicrobial activity by susceptibility testing in liquid media. Compounds may be dissolved in dimethylsulfoxide and tested in 10 doubling dilutions in the susceptibility assays. The organisms used in the assay may be grown overnight on suitable agar media and then suspended in a liquid medium appropriate for the growth of the organism. The suspension can be a 0.5 McFarland and a further 1 in 10 dilution can be made into the same liquid medium to prepare the final organism suspension in 100 μL. Plates can be incubated under appropriate conditions at 37° C. for 24 hrs prior to reading.
In test [2] the target is T1, Msm. GyrB (Mycolicibacterium smegmatis, UniProt A0QNE0).
T1 construct: 15 nM Msm; GyrB, 650 μM ATP, and compound in dimethyl sulfoxide
In words: Msmegmatis GyrB enzyme assay (ATPase, malachite green phosphate detection). The class given is biochemical. Particulars: read-out: Msm_GyrB IC50. Here is the method: Compounds may be tested for inhibition of GyrB ATPase activity using an ammonium molybdate/malachite green-based phosphate detection assay (Lanzetta, P. A., L. J. Alvarez, P. S. Reinach, and O. A. Candia, 1979, 100: 95-97; Innova Biosciences malachite green detection kit). Assays can be performed in multi-well plates in 50 μl reactions containing: 50 mM HEPES buffer pH 7.7, 250 mM potassium glutamate, 200 mM potassium chloride, 2 mM magnesium chloride, 2% glycerol, 1 mM 1,4-Dithio-DL-threitol, 0.005% Brij-35, 15 nM Msm. GyrB, 650 μM ATP, and compound in dimethyl sulfoxide. Reactions can be quenched with 12.5 μl of ammonium molybdate/malachite green detection reagent (Pi color lock gold & accelerator mix; Innova Biosciences), followed by the addition of 5 μl of stabilizer (Innova Biosciences) after 5 min of incubation.

Test [3] concerns Eco-tolC. As to the kind of experiment: Bacterial susceptibility testing in liquid media, Eco-tolC MIC. The note with it: Escherichia coli, read-out: Eco-tolC MIC.
Description: as §1
Test [4] relates to M. tuberculosis. As to the kind of experiment: Mycobacteria susceptibility testing, Microplate Alamar Blue Assay, Mtu MIC. It is filed as cell-based, Mycobacterium tuberculosis (Mtu). Particulars: Mycobacterium tuberculosis.

Structures are written as SMILES. Values after ≈ are worked out from the molar mass of the structure shown.

T1 sequence (A0QNE0 whole entry): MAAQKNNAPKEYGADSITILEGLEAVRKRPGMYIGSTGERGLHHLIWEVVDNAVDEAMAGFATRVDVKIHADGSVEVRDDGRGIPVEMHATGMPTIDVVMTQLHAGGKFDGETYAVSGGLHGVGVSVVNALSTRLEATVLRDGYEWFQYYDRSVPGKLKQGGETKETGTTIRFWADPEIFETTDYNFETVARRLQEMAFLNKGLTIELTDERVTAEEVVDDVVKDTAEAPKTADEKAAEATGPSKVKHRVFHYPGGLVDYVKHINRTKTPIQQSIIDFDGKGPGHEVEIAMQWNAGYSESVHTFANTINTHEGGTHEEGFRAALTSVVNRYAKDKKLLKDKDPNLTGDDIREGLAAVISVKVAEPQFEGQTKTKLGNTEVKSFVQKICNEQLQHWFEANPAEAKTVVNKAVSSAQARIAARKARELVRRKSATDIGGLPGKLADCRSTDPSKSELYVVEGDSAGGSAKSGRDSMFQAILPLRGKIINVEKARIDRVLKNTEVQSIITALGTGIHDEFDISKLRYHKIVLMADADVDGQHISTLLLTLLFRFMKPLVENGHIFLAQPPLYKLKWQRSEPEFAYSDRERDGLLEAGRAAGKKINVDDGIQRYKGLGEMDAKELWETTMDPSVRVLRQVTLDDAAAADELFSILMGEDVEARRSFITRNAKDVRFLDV

Regarding `CCNC(=O)Nc1nc2cc(-c3cncnc3)c(OCCOC(C)C)nc2s1` [Example 35, 1-ethyl-3-{5-[2-(1-methylethoxy)ethoxy]-6-pyrimidin-5-yl[1,3]thiazolo[5,4-b]pyridin-2-yl}urea], the MIC in test [1] was 0.0625 µg/mL (≈ 0.155 µM); in test [3], 0.25 µg/mL (≈ 0.621 µM); in test [4], 0.354 µg/mL (≈ 0.879 µM). Besides, in test [2], the IC50 is 28 nM.

Regarding `CCNC(=O)Nc1nc2cc(-c3cncnc3)c(OCCC(C)C)nc2s1` [Example 37, 1-ethyl-3-[5-(3-methylbutoxy)-6-pyrimidin-5-yl[1,3]thiazolo[5,4-b]pyridin-2-yl]urea], the minimal inhibitory concentration (MIC) in test [1] is 0.0625 µg/mL (≈ 0.162 µM); in test [3], 0.25 µg/mL (≈ 0.647 µM); in test [4], less than 0.25 µg/mL. In addition, the concentration for half-maximal inhibition (IC50) in test [2] turned out to be 11.8 nM.

For `CCNC(=O)Nc1nc2cc(-c3cncnc3)c(OCCc3scnc3C)nc2s1` [Example 38, 1-ethyl-3-{5-[2-(4-methyl-1,3-thiazol-5-yl)ethoxy]-6-pyrimidin-5-yl[1,3]thiazolo[5,4-b]pyridin-2-yl}urea], the MIC in test [1] was 0.0625 µg/mL (≈ 0.142 µM); in test [3] it was 0.125 µg/mL (≈ 0.283 µM); in test [4], 0.281 µg/mL (≈ 0.636 µM). Further, the half-inhibitory concentration (IC50) in test [2] was less than 5.01 nM.

As to `CCNC(=O)Nc1nc2cc(-c3cncnc3)c(OCC(F)(F)F)nc2s1` [Example 39, 1-ethyl-3-[6-pyrimidin-5-yl-5-(2,2,2-trifluoroethoxy)[1,3]thiazolo[5,4-b]pyridin-2-yl]urea], the MIC in test [1] was 0.0625 µg/mL (≈ 0.157 µM); in test [3], 0.354 µg/mL (≈ 0.888 µM); in test [4], 0.25 µg/mL (≈ 0.628 µM). Also, the 50% inhibitory concentration (IC50) in test [2] is less than 3.87 nM.

On to `CCNC(=O)Nc1nc2cc(-c3cccnc3)c(OCCOC(C)C)nc2s1` [Example 41, 1-ethyl-3-{5-[2-(1-methylethoxy)ethoxy]-6-pyridin-3-yl[1,3]thiazolo[5,4-b]pyridin-2-yl}urea], for which the minimum inhibitory concentration (MIC) in test [1] is 0.0784 µg/mL (≈ 0.195 µM); in test [3], 5.02 µg/mL (≈ 12.5 µM); in test [4], 2 µg/mL (≈ 4.98 µM). Moreover, the IC50 in test [2] was found to be 9.1 nM.

`CCNC(=O)Nc1nc2cc(-c3cncnc3)c(OCC(C)C)nc2s1` [Example 43, 1-ethyl-3-[5-(2-methylpropoxy)-6-pyrimidin-5-yl[1,3]thiazolo[5,4-b]pyridin-2-yl]urea]: the MIC in test [1] turned out to be 0.0727 µg/mL (≈ 0.195 µM); in test [3], 0.582 µg/mL (≈ 1.56 µM); in test [4], 0.125 µg/mL (≈ 0.336 µM). The IC50 in test [2] was found to be 4.39 nM.

In the case of `CCNC(=O)Nc1nc2cc(-c3cncnc3)c(OCCOCC)nc2s1` [Example 46, 1-[5-(2-ethoxyethoxy)-6-pyrimidin-5-yl[1,3]thiazolo[5,4-b]pyridin-2-yl]-3-ethylurea], the MIC in test [1] is 0.0625 µg/mL (≈ 0.161 µM); in test [3], 0.25 µg/mL (≈ 0.644 µM); in test [4] it was 0.125 µg/mL (≈ 0.322 µM). For the same compound, in test [2], the IC50 stood at 20 nM.

`C=CCOCCOc1nc2sc(NC(=O)NCC)nc2cc1-c1cncnc1` [Example 47, 1-ethyl-3-{5-[2-(prop-2-en-1-yloxy)ethoxy]-6-pyrimidin-5-yl[1,3]thiazolo[5,4-b]pyridin-2-yl}urea]: the MIC in test [1] is 0.0625 µg/mL (≈ 0.156 µM); in test [3], 0.5 µg/mL (≈ 1.25 µM); in test [4], 0.125 µg/mL (≈ 0.312 µM). Also, the IC50 in test [2] is 17.1 nM.

As for `CCNC(=O)Nc1nc2cc(-c3ccc(F)nc3)c(OCCOC)nc2s1` [Example 48, 1-ethyl-3-[6-(6-fluoropyridin-3-yl)-5-(2-methoxyethoxy)[1,3]thiazolo[5,4-b]pyridin-2-yl]urea], the MIC in test [1] is 0.0625 µg/mL (≈ 0.16 µM); in test [3] it was 0.125 µg/mL (≈ 0.319 µM); in test [4], 0.707 µg/mL (≈ 1.81 µM). In test [2], the IC50 is 4.51 nM.

Regarding `CCNC(=O)Nc1nc2cc(-c3cncnc3)c(OCC3CCOCC3)nc2s1` [Example 49, 1-ethyl-3-[6-pyrimidin-5-yl-5-(tetrahydro-2H-pyran-4-ylmethoxy)[1,3]thiazolo[5,4-b]pyridin-2-yl]urea], the MIC in test [1] was determined as 0.0625 µg/mL (≈ 0.151 µM); in test [3] it was 0.125 µg/mL (≈ 0.302 µM); in test [4], 0.0625 µg/mL (≈ 0.151 µM). In addition, the IC50 in test [2] was less than 2.54 nM.

Take `CCNC(=O)Nc1nc2cc(-c3cncnc3)c(OCc3cscn3)nc2s1` [Example 50, 1-ethyl-3-[6-pyrimidin-5-yl-5-(1,3-thiazol-4-ylmethoxy)[1,3]thiazolo[5,4-b]pyridin-2-yl]urea]: the MIC in test [1] stood at 0.0625 µg/mL (≈ 0.151 µM); in test [3], 0.25 µg/mL (≈ 0.605 µM); in test [4] it was 0.25 µg/mL (≈ 0.605 µM). In addition, the concentration for half-maximal inhibition (IC50) in test [2] is less than 2.54 nM.

For the compound `CCNC(=O)Nc1nc2cc(-c3cncnc3)c(OCC3CCCO3)nc2s1` (stereo not shown) [Example 51, 1-ethyl-3-[6-pyrimidin-5-yl-5-(tetrahydrofuran-2-ylmethoxy)[1,3]thiazolo[5,4-b]pyridin-2-yl]urea], the values for the minimal inhibitory concentration (MIC) in test [1], in test [3] and in test [4] were 0.0625 µg/mL (≈ 0.156 µM), 0.125 µg/mL (≈ 0.312 µM) and 0.25 µg/mL (≈ 0.624 µM), respectively. The IC50 in test [2] was found to be 4.87 nM.

On to `CCNC(=O)Nc1nc2cc(-c3cncnc3)c(NCC3CCCO3)nc2s1` (stereo not shown) [Example 52, 1-ethyl-3-{6-pyrimidin-5-yl-5-[(tetrahydrofuran-2-ylmethyl)amino][1,3]thiazolo[5,4-b]pyridin-2-yl}urea], for which the minimum inhibitory concentration (MIC) in test [1] turned out to be 0.125 µg/mL (≈ 0.313 µM); in test [3] it was 4 µg/mL (≈ 10 µM); in test [4], 1 µg/mL (≈ 2.5 µM). Besides, the IC50 in test [2] turned out to be 7.88 nM.

For the compound `CCNC(=O)Nc1nc2cc(-c3cncc(C(=O)OCC)c3)c(OCC3CCOC3)nc2s1` (stereo not shown) [Example 53, ethyl 5-{2-[(ethylcarbamoyl)amino]-5-(tetrahydrofuran-3-ylmethoxy)[1,3]thiazolo[5,4-b]pyridin-6-yl}pyridine-3-carboxylate], the results for the MIC in test [1], in test [3] and in test [4] were 0.0625 µg/mL (≈ 0.133 µM), 0.5 µg/mL (≈ 1.06 µM) and 2.83 µg/mL (≈ 6 µM), respectively. For the same compound, in test [2], the IC50 was found to be 62.2 nM.

For `CCNC(=O)Nc1nc2cc(-c3cccc(/C=C/C(=O)O)c3)c(OCC3CCOC3)nc2s1` (stereo not shown) [Example 55, (2E)-3-(3-{2-[(ethylcarbamoyl)amino]-5-(tetrahydrofuran-3-ylmethoxy)[1,3]thiazolo[5,4-b]pyridin-6-yl}phenyl)prop-2-enoic acid], the results for the MIC in test [1], in test [3] and in test [4] were 0.0625 µg/mL (≈ 0.133 µM), 2 µg/mL (≈ 4.27 µM) and more than 8 µg/mL, respectively. Further, the IC50 in test [2] worked out at 35.2 nM.

Take `CCNC(=O)Nc1nc2cc(-c3cncnc3)c(OC)nc2s1` [Example 56, 1-ethyl-3-(5-methoxy-6-pyrimidin-5-yl[1,3]thiazolo[5,4-b]pyridin-2-yl)urea]: the figures for the MIC in test [1], in test [3] and in test [4] were 0.0625 µg/mL (≈ 0.189 µM), 0.5 µg/mL (≈ 1.51 µM) and 0.707 µg/mL (≈ 2.14 µM), respectively. For the same compound, the IC50 in test [2] amounted to 21.6 nM.

Consider `CCNC(=O)Nc1nc2cc(N3CCC(O)C3)c(OCC3CCOC3)nc2s1` (stereo not shown) [Example 58, 1-ethyl-3-(6-(3-hydroxypyrrolidin-1-yl)-5-((tetrahydrofuran-3-yl)methoxy)thiazolo[5,4-b]pyridin-2-yl)urea], for which the MIC in test [1] is 4 µg/mL (≈ 9.82 µM); in test [3], more than 32 µg/mL; in test [4], more than 8 µg/mL. Moreover, in test [2], the IC50 was determined as 2110 nM.

Regarding `CCNC(=O)Nc1nc2cc(-c3ccc(F)nc3)c(OCC3CCOCC3)nc2s1` [Example 59, 1-ethyl-3-[6-(6-fluoropyridin-3-yl)-5-(tetrahydro-2H-pyran-4-ylmethoxy)[1,3]thiazolo[5,4-b]pyridin-2-yl]urea], the MIC in test [1] came to 0.125 µg/mL (≈ 0.29 µM); in test [3] it was 1 µg/mL (≈ 2.32 µM); in test [4] it was 0.5 µg/mL (≈ 1.16 µM). Further, the IC50 in test [2] was less than 4.83 nM.

With `CCNC(=O)Nc1nc2cc(-c3cncc(F)c3)c(OCC3CCOCC3)nc2s1` [Example 60, 1-ethyl-3-[6-(5-fluoropyridin-3-yl)-5-(tetrahydro-2H-pyran-4-ylmethoxy)[1,3]thiazolo[5,4-b]pyridin-2-yl]urea], the MIC in test [1] is 0.125 µg/mL (≈ 0.29 µM); in test [3], 1 µg/mL (≈ 2.32 µM); in test [4], 0.354 µg/mL (≈ 0.819 µM). Moreover, the IC50 in test [2] was less than 2.54 nM.
